In EP0429304A2, “Pyridone-carboxylic acid derivatives and their use as veterinary medicines” (SHIONOGI SEIYAKU KABUSHIKI KAISHA trading under the name of …, priority 1989, dated 1991):
Where two headings read alike, the source gives them in different places.

Columns and labels:
[1] = test system: Mycoplasma gallisepticum (MG) S6; test: In vitro sensitivity test (liquid dilution method); type: cell-based; settings: 37°C, 7 days
[2] = test system: Mycoplasma gallisepticum (MG) T-7-T, TS-resistant strain isolated from the field; test: In vitro sensitivity test (liquid dilution method); type: cell-based; settings: 37°C, 7 days
[3] = test system: Mycoplasma hyopneumoniae (Mh) ST-11; test: In vitro sensitivity test (liquid dilution method); type: cell-based; settings: 37°C, 7 days
[4] = test system: Mycoplasma synoviae (MS) 1853; test: In vitro sensitivity test (liquid dilution method); type: cell-based; settings: 37°C, 7 days
Procedure, shortened: (§1)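 Mycoplasma synoviae strains tested by liquid dilution in Frey medium with 12% pig serum and 0.01% βNAD, 37 °C for 7 days. P. piscicida grown on heart infusion agar with 1.5% NaCl, 25 °C for 40–48 h.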

[5] = test system: Mycoplasma synoviae (MS) F10-2as; test: In vitro sensitivity test (liquid dilution method); type: cell-based; settings: 37°C, 7 days
Procedure, shortened: as §1

[6] = test system: Bordetella bronchiseptica (B.br) ABU-1; test: In vitro sensitivity test (agar dilution method); type: cell-based; settings: 37°C, 20 to 24 hours
[7] = test system: Escherichia coli (E.coli) E-17, chicken-origin strain isolated from the field; test: In vitro sensitivity test (agar dilution method); type: cell-based; settings: 37°C, 20 to 24 hours
Procedure, shortened: (§2)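 For the fish-origin P.pis strain this meant heart infusion agar supplemented with 1.5 % NaCl at 25°C for 40 to 48 hours. S.au plates used Mueller Hinton agar at 37°C for 20 to 24 hours. MS broths used Frey medium with 12 % pig-serum and 0.01 % βNAD at 37°C for 7 days.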

[8] = test system: Escherichia coli (E.coli) JC-2; test: In vitro sensitivity test (agar dilution method); type: cell-based; settings: 37°C, 20 to 24 hours
[9] = test system: Hemophilus paragallinarum (H.pg) 221; test: In vitro sensitivity test (agar dilution method); type: cell-based; settings: agar dilution, 37°C, 20 hours, 10 % CO₂
[10] = test system: Hemophilus paragallinarum (H.pg) S-1; test: In vitro sensitivity test (agar dilution method); type: cell-based; settings: agar dilution, 37°C, 20 hours, 10 % CO₂
[11] = test system: Hemophilus pleuropneumonia (H.pp) M-1; test: In vitro sensitivity test (agar dilution method); type: cell-based; settings: 37°C, 20 hours, 10 % CO₂
[12] = test system: Salmonella typhimurium (S.typhi) 13311; test: In vitro sensitivity test (agar dilution method); type: cell-based; settings: 37°C, 20 to 24 hours
[13] = test system: Staphylococcus aureus (S.au) 209P; test: In vitro sensitivity test (agar dilution method); type: cell-based; settings: 37°C, 20 to 24 hours
Procedure, shortened: as §2

[14] = test system: Pasteurella piscicida (P.pis) No. 2; test: In vitro sensitivity test; type: cell-based; settings: 25°C, 40 to 48 hours
Procedure, shortened: as §1

[15] = test system: Streptococcus sp (Str.sp) SNO6119; test: In vitro sensitivity test; type: cell-based; settings: 25°C, 40 to 48 hours
[16] = test system: TS-resistant strain of MG; type: in vivo, chicken; settings: for Infectious index Left air sack + / Infectious index Left air sack ++ / Infectious index Left air sack +++ / Infectious index Left air sack - / Infectious index Right air sack + / Infectious index Right air sack ++ / Infectious index Right air sack +++ / Infectious index Right air sack -: count of fowl; for Infectious index Left air sack + / Infectious index Left air sack ++ / Infectious index Left air sack +++ / Infectious index Left air sack - / Infectious index Right air sack + / Infectious index Right air sack ++ / Infectious index Right air sack +++ / Infectious index Right air sack - / Number of fowl having air sack lesions: 10-days chicken, 1.2 x 10³ CFU/fowl
TS-resistant MG [17] = test: Experimental MG infection to chicken, through injection; type: in vivo; settings: 5 fowl tested, 10-days chicken, 3.1 x 10³ CFU/fowl; for Infectious index Left air sack + (number of fowl) / Infectious index Right air sack + (number of fowl): grade + = slight infection; for Infectious index Left air sack ++ (number of fowl) / Infectious index Right air sack ++ (number of fowl): grade ++ = considerable infection; for Infectious index Left air sack +++ (number of fowl) / Infectious index Right air sack +++ (number of fowl): grade +++ = severe infection; for Infectious index Left air sack - (number of fowl) / Infectious index Right air sack - (number of fowl): grade - = no infection
TS-resistant MG [18] = test: Experimental MG infection to chicken, through bait; type: in vivo
[19] = count of fowl, bait 1100 ppm/Day, 9-days chicken, 1.8 x 10³ CFU/fowl

N[C@H]1CCC[C@H]2CN(c3c(F)cc4c(=O)c(C(=O)O)cn(C5CC5)c4c3F)CC[C@H]21 (relative stereo) [I-6]
In vitro Sensitivity Test MG S6 [1]: 0.00625 µg/mL
In vitro Sensitivity Test MG T-7-T [2]: 0.00625 µg/mL
In vitro Sensitivity Test Mh ST-11 [3]: <0.025 µg/mL
In vitro Sensitivity Test MS 1853 [4]: 0.2 µg/mL
In vitro Sensitivity Test MS F10-2as [5]: 0.2 µg/ml
In vitro Sensitivity Test B.br ABU-1 [6]: 3.13 µg/mL
In vitro Sensitivity Test E.coli E-17 [7]: 0.2 µg/ml
In vitro Sensitivity Test E.coli JC-2 [8]: 0.1 µg/mL
In vitro Sensitivity Test H.pg 221 [9]: >1.56 µg/mL
In vitro Sensitivity Test H.pg S-1 [10]: >1.56 µg/mL
In vitro Sensitivity Test H.pp M-1 [11]: 0.2 µg/mL
In vitro Sensitivity Test S.typhi 13311 [12]: 0.2 µg/mL
In vitro Sensitivity Test S.au 209P [13]: ≦0.0125 µg/ml
In vitro Sensitivity Test P.pis No. 2 [14]: 0.78 µg/mL
In vitro Sensitivity Test Str.sp SNO6119 [15]: 0.39 µg/mL
Infectious index Left air sack + ([16]; oral 3.13 mg/kg): 0
Infectious index Left air sack ++ ([16]; oral 3.13 mg/kg): 0
Infectious index Left air sack +++ ([16]; oral 3.13 mg/kg): 0
Infectious index Left air sack - ([16]; oral 3.13 mg/kg): 5
Infectious index Right air sack + ([16]; oral 3.13 mg/kg): 0
Infectious index Right air sack ++ ([16]; oral 3.13 mg/kg): 0
Infectious index Right air sack +++ ([16]; oral 3.13 mg/kg): 0
Infectious index Right air sack - ([16]; oral 3.13 mg/kg): 5
Infectious index Left air sack + ([16]; oral 6.25 mg/kg): 1
Infectious index Left air sack ++ ([16]; oral 6.25 mg/kg): 0
Infectious index Left air sack +++ ([16]; oral 6.25 mg/kg): 0
Infectious index Left air sack - ([16]; oral 6.25 mg/kg): 4
Infectious index Right air sack + ([16]; oral 6.25 mg/kg): 1
Infectious index Right air sack ++ ([16]; oral 6.25 mg/kg): 4
Infectious index Right air sack +++ ([16]; oral 6.25 mg/kg): 0
Infectious index Right air sack - ([16]; oral 6.25 mg/kg): 0
Infectious index Left air sack + ([16]; oral 12.5 mg/kg): 0
Infectious index Left air sack ++ ([16]; oral 12.5 mg/kg): 0
Infectious index Left air sack +++ ([16]; oral 12.5 mg/kg): 0
Infectious index Left air sack - ([16]; oral 12.5 mg/kg): 5
Infectious index Right air sack + ([16]; oral 12.5 mg/kg): 0
Infectious index Right air sack ++ ([16]; oral 12.5 mg/kg): 4
Infectious index Right air sack +++ ([16]; oral 12.5 mg/kg): 1
Infectious index Right air sack - ([16]; oral 12.5 mg/kg): 0
Number of fowl having air sack lesions ([16]; oral 3.13 mg/kg): 0
Number of fowl having air sack lesions ([16]; oral 6.25 mg/kg): 5
Number of fowl having air sack lesions ([16]; oral 12.5 mg/kg): 5
Number of fowl having air sack lesions (TS-resistant MG [17]; Dose 1.56 mg/kg): 0
Infectious index Left air sack + (number of fowl) (TS-resistant MG [17]; Dose 1.56 mg/kg): 0
Infectious index Right air sack + (number of fowl) (TS-resistant MG [17]; Dose 1.56 mg/kg): 0
Infectious index Left air sack ++ (number of fowl) (TS-resistant MG [17]; Dose 1.56 mg/kg): 0
Infectious index Right air sack ++ (number of fowl) (TS-resistant MG [17]; Dose 1.56 mg/kg): 0
Infectious index Left air sack +++ (number of fowl) (TS-resistant MG [17]; Dose 1.56 mg/kg): 0
Infectious index Right air sack +++ (number of fowl) (TS-resistant MG [17]; Dose 1.56 mg/kg): 0
Infectious index Left air sack - (number of fowl) (TS-resistant MG [17]; Dose 1.56 mg/kg): 5
Infectious index Right air sack - (number of fowl) (TS-resistant MG [17]; Dose 1.56 mg/kg): 5
Number of fowl having air sack lesions (TS-resistant MG [17]; Dose 3.13 mg/kg): 0
Infectious index Left air sack + (number of fowl) (TS-resistant MG [17]; Dose 3.13 mg/kg): 0
Infectious index Right air sack + (number of fowl) (TS-resistant MG [17]; Dose 3.13 mg/kg): 0
Infectious index Left air sack ++ (number of fowl) (TS-resistant MG [17]; Dose 3.13 mg/kg): 0
Infectious index Right air sack ++ (number of fowl) (TS-resistant MG [17]; Dose 3.13 mg/kg): 0
Infectious index Left air sack +++ (number of fowl) (TS-resistant MG [17]; Dose 3.13 mg/kg): 0
Infectious index Right air sack +++ (number of fowl) (TS-resistant MG [17]; Dose 3.13 mg/kg): 0
Infectious index Left air sack - (number of fowl) (TS-resistant MG [17]; Dose 3.13 mg/kg): 5
Infectious index Right air sack - (number of fowl) (TS-resistant MG [17]; Dose 3.13 mg/kg): 0

NC[C@@]12CCC[C@@H]1CN(c1cc3c(cc1F)c(=O)c(C(=O)O)cn3C1CC1)C2 (relative stereo) [I-8, 7-[(1R*,5S*)-1-aminomethyl-3-azabicyclo[3.3.0]octan-3-yl]-1-cyclopropyl-6-fluoro-1,4-dihydro-4-oxo-3-quinolinecarboxylic acid]
In vitro Sensitivity Test MG S6 [1]: <0.00313 µg/mL
In vitro Sensitivity Test MG T-7-T [2]: 0.00625 µg/mL
In vitro Sensitivity Test Mh ST-11 [3]: <0.025 µg/mL
In vitro Sensitivity Test MS 1853 [4]: 0.1 µg/mL
In vitro Sensitivity Test MS F10-2as [5]: 0.1 µg/ml
In vitro Sensitivity Test B.br ABU-1 [6]: 1.56 µg/mL
In vitro Sensitivity Test E.coli E-17 [7]: 0.05 µg/ml
In vitro Sensitivity Test E.coli JC-2 [8]: 0.05 µg/mL
In vitro Sensitivity Test H.pg 221 [9]: 0.2 µg/mL
In vitro Sensitivity Test H.pg S-1 [10]: 0.2 µg/mL
In vitro Sensitivity Test H.pp M-1 [11]: 0.05 µg/mL
In vitro Sensitivity Test S.typhi 13311 [12]: 0.2 µg/mL
In vitro Sensitivity Test S.au 209P [13]: <0.0125 µg/mL
In vitro Sensitivity Test P.pis No. 2 [14]: 0.78 µg/mL
In vitro Sensitivity Test Str.sp SNO6119 [15]: 0.78 µg/mL
Infectious index Left air sack + ([16]; oral 1.56 mg/kg): 0
Infectious index Left air sack ++ ([16]; oral 1.56 mg/kg): 0
Infectious index Left air sack +++ ([16]; oral 1.56 mg/kg): 0
Infectious index Left air sack - ([16]; oral 1.56 mg/kg): 5
Infectious index Right air sack + ([16]; oral 1.56 mg/kg): 3
Infectious index Right air sack ++ ([16]; oral 1.56 mg/kg): 2
Infectious index Right air sack +++ ([16]; oral 1.56 mg/kg): 0
Infectious index Right air sack - ([16]; oral 1.56 mg/kg): 0
Infectious index Left air sack + ([16]; oral 3.13 mg/kg): 0
Infectious index Left air sack ++ ([16]; oral 3.13 mg/kg): 0
Infectious index Left air sack +++ ([16]; oral 3.13 mg/kg): 0
Infectious index Left air sack - ([16]; oral 3.13 mg/kg): 5
Infectious index Right air sack + ([16]; oral 3.13 mg/kg): 1
Infectious index Right air sack ++ ([16]; oral 3.13 mg/kg): 0
Infectious index Right air sack +++ ([16]; oral 3.13 mg/kg): 0
Infectious index Right air sack - ([16]; oral 3.13 mg/kg): 4
Infectious index Left air sack + ([16]; oral 6.25 mg/kg): 0
Infectious index Left air sack ++ ([16]; oral 6.25 mg/kg): 0
Infectious index Left air sack +++ ([16]; oral 6.25 mg/kg): 0
Infectious index Left air sack - ([16]; oral 6.25 mg/kg): 5
Infectious index Right air sack + ([16]; oral 6.25 mg/kg): 0
Infectious index Right air sack ++ ([16]; oral 6.25 mg/kg): 0
Infectious index Right air sack +++ ([16]; oral 6.25 mg/kg): 0
Infectious index Right air sack - ([16]; oral 6.25 mg/kg): 5
antimicrobial activity compared with ERFX ([16]; in vivo, po): two times more effective than ERFX
Number of fowl having air sack lesions ([16]; oral 1.56 mg/kg): 5
Number of fowl having air sack lesions ([16]; oral 3.13 mg/kg): 1
Number of fowl having air sack lesions ([16]; oral 6.25 mg/kg): 0
complete inihibition of the lesions in air sac at a concentration of ([16]; oral administration, MG-infected chicken): about 3.13 mg/kg

Tylosin® [TSP, reference compound]
In vitro Sensitivity Test MG S6 [1]: 0.05 µg/mL
In vitro Sensitivity Test MG T-7-T [2]: 6.25 µg/mL
In vitro Sensitivity Test Mh ST-11 [3]: 0.1 µg/mL
In vitro Sensitivity Test MS 1853 [4]: 0.1 µg/mL
In vitro Sensitivity Test MS F10-2as [5]: 0.1 µg/ml
In vitro Sensitivity Test E.coli JC-2 [8]: 25.0 µg/mL
In vitro Sensitivity Test H.pp M-1 [11]: 25.0 µg/mL
In vitro Sensitivity Test S.typhi 13311 [12]: 0.39 µg/mL
In vitro Sensitivity Test S.au 209P [13]: 0.39 µg/mL
Number of fowl having air sack lesions (TS-resistant MG [18]; bait 1100 ppm/Day, 9-days chicken, 1.8 x 10³ CFU/fowl): 5
Infectious index Left air sack + (TS-resistant MG [18]; [19]): 1
Infectious index Left air sack ++ (TS-resistant MG [18]; [19]): 0
Infectious index Left air sack +++ (TS-resistant MG [18]; [19]): 0
Infectious index Left air sack - (TS-resistant MG [18]; [19]): 4
Infectious index Right air sack + (TS-resistant MG [18]; [19]): 3
Infectious index Right air sack ++ (TS-resistant MG [18]; [19]): 2
Infectious index Right air sack +++ (TS-resistant MG [18]; [19]): 0
Infectious index Right air sack - (TS-resistant MG [18]; [19]): 0
inhibition of lesions in air sacs (TS-resistant MG [18]; through bait, 1100 ppm): could not inhibit lesions in air sacs
